This note sets out measurements from patent publication US12304890B2, “R-type pyridyloxycarboxylic acid, salt and ester derivative thereof, and preparation method therefor, and herbicidal composition and application thereof” (Qingdao Kingagroot Chemical Compound Co., Ltd., priority 2018, dated 2025).

What all share (type): in vivo
Data set [1] has as its system Monocotyledonous and dicotyledonous weed seeds and main crop seeds. Kind of data set: Post-emergence test experiment, other weeds and crops (Table 4, 1000 g a.i./ha). Conditions: 3 weeks in greenhouse, fresh weight inhibition. In a few lines:
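Growth inhibition is scored on fresh weight. Spray solutions were made in acetone with tween-80, diluted in water, plus 1.5 L/ha methyl oleate emulsible concentrate. Plants from greenhouse-grown weed and crop seeds were treated post-emergence at 2-3 leaves, 2 weeks after sowing.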

Data set [2] has as its system Echinochloa crusgalli. Kind of data set: Post-emergence test experiment, Echinochloa crusgalli. As to conditions: for Echinochloa crusgalli, activity level (growth inhibition rate): 3 weeks; for Activity level (growth inhibition rate), Echinochloa crusgalli: 1000 g a.i./ha, 3 weeks in greenhouse, fresh weight inhibition. In short, it runs like this:
(§1)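 Growth inhibition is given as reduction in fresh weight, assessed 3 weeks post-treatment in the greenhouse. Spray solutions (acetone, tween-80, water, with 1.5 L/ha methyl oleate concentrate synergist) were applied to weeds and crops at 2-3 leaves, 2 weeks from sowing.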

Data set [3] has as its system rice. Kind of data set: Post-emergence test experiment, rice (crop selectivity). As to conditions: 3 weeks. As to the method: (§2) The above described growth inhibition rate is fresh weight inhibition rate.
(§3) Post-emergence test experiment: Monocotyledonous and dicotyledonous weed seeds and main crop seeds (i. e. wheat, corn, rice, soybean, cotton, oilseed, millet and sorghum.) were put into a plastic pot loaded with soil. Then covered with 0.5-2 cm soil, the seeds were allowed to grow in good greenhouse environment. The test plants were treated at 2-3 leaf stage 2 weeks after sowing. The test compounds of the invention were dissolved with acetone respectively, then added with tween-80, and using 1.5 liters per hectare of an emulsible concentrate of methyl oleate as a synergist, and diluted by certain amount of water to certain concentration. The solution was sprayed to the plants with a sprayer. Then the plants were cultured for 3 weeks in the greenhouse, and the experiment result of weed controlling effect was listed in tables 4-5.

Data set [4] relates to Semen Euphorbiae Lathyridis. In words: Post-emergence test experiment, Semen Euphorbiae Lathyridis. As to conditions: 3 weeks. Here is the method: as §2, §3
In data set [5] the test system is Digitaria sanguinalis. In words: Post-emergence test experiment, Digitaria sanguinalis. Conditions: for Digitaria sanguinalis, activity level (growth inhibition rate): 3 weeks; for Activity level (growth inhibition rate), Digitaria sanguinalis: 1000 g a.i./ha, 3 weeks in greenhouse, fresh weight inhibition. In short, it runs like this: as §1
Data set [6] concerns Monochoria vaginalis. In words: Weed control effect evaluation in rice field. As to conditions: paddy pot, 0.5 leaf stage, 50 g a.i./ha, 14 days; weed resistant to pyrazosulfuron-ethyl and penoxsulam. Here is the method:
Rice field soil was loaded into a 1/1,000,000 ha pot. The seeds of Monochoria vaginalis were sowed and gently covered with soil, then left to stand still in greenhouse in the state of 0.5-1 cm of water storage. It was kept at 3-4 cm of water storage thereafter. The weeds were treated by dripping the WP or SC water diluents prepared according to the common preparation method of the compounds of the present invention with pipette homogeneously to achieve specified effective amount when Monochoria vaginalis reached 0.5 leaf stage.
The fertility condition of Monochoria vaginalis 14 days and rice 21 days after the treatment of the compound of the invention with the naked eye.

Setting [7] is: 200 g a.i./ha, weed resistant to ALS inhibitor and ACCe herbicides.
Setting [8] is: 200 g a.i./ha, weed resistant to cyhalofop-butyl.

Take `CCCCCCCCCCCCOC(=O)[C@@H](C)Oc1nc(F)c(Cl)c(N)c1Cl` [Compound 2-235]: in data set [1], the “Activity level (growth inhibition rate), Abutilon theophrasti Medic.” value is on record as 5 (Level 5: the growth inhibition rate is greater than 85%); the “Activity level (growth inhibition rate), Galium aparine” value is 5 (Level 5: the growth inhibition rate is greater than 85%); the “Activity level (growth inhibition rate), Monochoria Vaginalis” value is 5 (Level 5: the growth inhibition rate is greater than 85%). Moreover, the “Echinochloa crusgalli, activity level (growth inhibition rate)” value in data set [2] (setting [7]) was 5 (Level 5: the growth inhibition rate is greater than 85%). Besides, the “Activity level (growth inhibition rate), Echinochloa crusgalli” value in data set [2] is listed as 5 (Level 5: the growth inhibition rate is greater than 85%). For the same molecule, in data set [3] (200 g a.i./ha), the “rice, activity level (growth inhibition rate)” value (“rice … (growth inhibition rate)” for short) was 0 (Level 0: the growth inhibition rate is less than 5%). Moreover, the “Semen Euphorbiae Lathyridis, activity level (growth inhibition rate)” value in data set [4] (setting [8]) is 5 (Level 5: the growth inhibition rate is greater than 85%). In addition, the “Digitaria sanguinalis, activity level (growth inhibition rate)” value in data set [5] (setting [8]) is reported as 5 (Level 5: the growth inhibition rate is greater than 85%). Moreover, in data set [5], the “Activity level (growth inhibition rate), Digitaria sanguinalis” value was 5 (Level 5: the growth inhibition rate is greater than 85%).
On to `CCCCOCCOC(=O)C(C)Oc1nc(F)c(Cl)c(N)c1Cl` (centres unmarked) [Compound 2-271], for which, in data set [1], the “Activity level (growth inhibition rate), Abutilon theophrasti Medic.” value is reported as 5 (Level 5: the growth inhibition rate is greater than 85%); the “Activity level (growth inhibition rate), Galium aparine” value is given as 5 (Level 5: the growth inhibition rate is greater than 85%); the “Activity level (growth inhibition rate), Monochoria Vaginalis” value was 5 (Level 5: the growth inhibition rate is greater than 85%). Moreover, in data set [2] (setting [7]), the “Echinochloa crusgalli, activity level (growth inhibition rate)” value was 5 (Level 5: the growth inhibition rate is greater than 85%). Further, the “Activity level (growth inhibition rate), Echinochloa crusgalli” value in data set [2] is 5 (Level 5: the growth inhibition rate is greater than 85%). Further, the “rice … (growth inhibition rate)” value in data set [3] (200 g a.i./ha) is 0 (Level 0: the growth inhibition rate is less than 5%). Further, the “Semen Euphorbiae Lathyridis, activity level (growth inhibition rate)” value in data set [4] (setting [8]) is on record as 5 (Level 5: the growth inhibition rate is greater than 85%). In data set [5] (setting [8]), the “Digitaria sanguinalis, activity level (growth inhibition rate)” value is listed as 5 (Level 5: the growth inhibition rate is greater than 85%). Further, the “Activity level (growth inhibition rate), Digitaria sanguinalis” value in data set [5] is recorded as 5 (Level 5: the growth inhibition rate is greater than 85%).
As for `C[C@@H](Oc1nc(F)c(Cl)c(N)c1Cl)C(=O)OCCCC(F)(F)F` [Compound 2-280], in data set [1], the “Activity level (growth inhibition rate), Abutilon theophrasti Medic.” value is reported as 5 (Level 5: the growth inhibition rate is greater than 85%); the “Activity level (growth inhibition rate), Galium aparine” value is 5 (Level 5: the growth inhibition rate is greater than 85%); the “Activity level (growth inhibition rate), Monochoria Vaginalis” value is listed as 5 (Level 5: the growth inhibition rate is greater than 85%). The “Echinochloa crusgalli, activity level (growth inhibition rate)” value in data set [2] (setting [7]) is on record as 5 (Level 5: the growth inhibition rate is greater than 85%). Besides, the “Activity level (growth inhibition rate), Echinochloa crusgalli” value in data set [2] is 5 (Level 5: the growth inhibition rate is greater than 85%). In data set [3] (200 g a.i./ha), the “rice … (growth inhibition rate)” value is listed as 0 (Level 0: the growth inhibition rate is less than 5%). Moreover, the “Semen Euphorbiae Lathyridis, activity level (growth inhibition rate)” value in data set [4] (setting [8]) is 5 (Level 5: the growth inhibition rate is greater than 85%). The “Digitaria sanguinalis, activity level (growth inhibition rate)” value in data set [5] (setting [8]) is recorded as 5 (Level 5: the growth inhibition rate is greater than 85%). The “Activity level (growth inhibition rate), Digitaria sanguinalis” value in data set [5] is listed as 5 (Level 5: the growth inhibition rate is greater than 85%).
On to `CC(Oc1nc(F)c(Cl)c(N)c1Cl)C(=O)OCCN(C)C` (centres unmarked) [Compound 2-283], for which, in data set [1], the “Activity level (growth inhibition rate), Abutilon theophrasti Medic.” value is given as 5 (Level 5: the growth inhibition rate is greater than 85%); the “Activity level (growth inhibition rate), Galium aparine” value is on record as 5 (Level 5: the growth inhibition rate is greater than 85%); the “Activity level (growth inhibition rate), Monochoria Vaginalis” value was 5 (Level 5: the growth inhibition rate is greater than 85%). Also, in data set [2] (setting [7]), the “Echinochloa crusgalli, activity level (growth inhibition rate)” value is recorded as 5 (Level 5: the growth inhibition rate is greater than 85%). For the same molecule, the “Activity level (growth inhibition rate), Echinochloa crusgalli” value in data set [2] was 5 (Level 5: the growth inhibition rate is greater than 85%). Besides, in data set [3] (200 g a.i./ha), the “rice … (growth inhibition rate)” value is 0 (Level 0: the growth inhibition rate is less than 5%). In addition, in data set [4] (setting [8]), the “Semen Euphorbiae Lathyridis, activity level (growth inhibition rate)” value is reported as 5 (Level 5: the growth inhibition rate is greater than 85%). Besides, in data set [5] (setting [8]), the “Digitaria sanguinalis, activity level (growth inhibition rate)” value is on record as 5 (Level 5: the growth inhibition rate is greater than 85%). For the same molecule, the “Activity level (growth inhibition rate), Digitaria sanguinalis” value in data set [5] was 5 (Level 5: the growth inhibition rate is greater than 85%).
For the molecule `CC(C)=NOCCOC(=O)C(C)Oc1nc(F)c(Cl)c(N)c1Cl` (centres unmarked) [Compound 2-287], in data set [1], the “Activity level (growth inhibition rate), Abutilon theophrasti Medic.” value was 5 (Level 5: the growth inhibition rate is greater than 85%); the “Activity level (growth inhibition rate), Galium aparine” value was 5 (Level 5: the growth inhibition rate is greater than 85%); the “Activity level (growth inhibition rate), Monochoria Vaginalis” value is reported as 5 (Level 5: the growth inhibition rate is greater than 85%). For the same molecule, in data set [2] (setting [7]), the “Echinochloa crusgalli, activity level (growth inhibition rate)” value is 5 (Level 5: the growth inhibition rate is greater than 85%). The “Activity level (growth inhibition rate), Echinochloa crusgalli” value in data set [2] is given as 5 (Level 5: the growth inhibition rate is greater than 85%). In data set [3] (200 g a.i./ha), the “rice … (growth inhibition rate)” value is 0 (Level 0: the growth inhibition rate is less than 5%). The “Semen Euphorbiae Lathyridis, activity level (growth inhibition rate)” value in data set [4] (setting [8]) is 5 (Level 5: the growth inhibition rate is greater than 85%). For the same molecule, in data set [5] (setting [8]), the “Digitaria sanguinalis, activity level (growth inhibition rate)” value is listed as 5 (Level 5: the growth inhibition rate is greater than 85%). Moreover, in data set [5], the “Activity level (growth inhibition rate), Digitaria sanguinalis” value is listed as 5 (Level 5: the growth inhibition rate is greater than 85%).
Take `CC(Oc1nc(F)c(Cl)c(N)c1Cl)C(=O)OCC1CCCO1` (centres unmarked) [Compound 2-298]: in data set [1], the “Activity level (growth inhibition rate), Abutilon theophrasti Medic.” value is 5 (Level 5: the growth inhibition rate is greater than 85%). Besides, the “Activity level (growth inhibition rate), Galium aparine” value in data set [1] is listed as 5 (Level 5: the growth inhibition rate is greater than 85%). Moreover, in data set [1], the “Activity level (growth inhibition rate), Monochoria Vaginalis” value is 5 (Level 5: the growth inhibition rate is greater than 85%). In addition, the “Echinochloa crusgalli, activity level (growth inhibition rate)” value in data set [2] (100 g a.i./ha, resistant weed) was 4 (Level 4: the growth inhibition rate is equal to or greater than 60% and less than 85%); in data set [2] (setting [7]), 5 (Level 5: the growth inhibition rate is greater than 85%); in data set [2] (400 g a.i./ha, resistant weed), 5 (Level 5: the growth inhibition rate is greater than 85%). Besides, the “Activity level (growth inhibition rate), Echinochloa crusgalli” value in data set [2] is 5 (Level 5: the growth inhibition rate is greater than 85%). For the same molecule, the “rice … (growth inhibition rate)” value was 0 (Level 0: the growth inhibition rate is less than 5%) in data set [3] (100 g a.i./ha); 1 (Level 1: the growth inhibition rate is equal to or greater than 5% and less than 20%) in data set [3] (400 g a.i./ha). For the same molecule, the “Semen Euphorbiae Lathyridis, activity level (growth inhibition rate)” value in data set [4] (100 g a.i./ha, resistant weed) is listed as 5 (Level 5: the growth inhibition rate is greater than 85%); in data set [4] (setting [8]) it was 5 (Level 5: the growth inhibition rate is greater than 85%); in data set [4] (400 g a.i./ha, resistant weed) it was 5 (Level 5: the growth inhibition rate is greater than 85%). The “Digitaria sanguinalis, activity level (growth inhibition rate)” value is 5 (Level 5: the growth inhibition rate is greater than 85%) in data set [5] (100 g a.i./ha, resistant weed); 5 (Level 5: the growth inhibition rate is greater than 85%) in data set [5] (setting [8]); 5 (Level 5: the growth inhibition rate is greater than 85%) in data set [5] (400 g a.i./ha, resistant weed). Moreover, the “Activity level (growth inhibition rate), Digitaria sanguinalis” value in data set [5] was 5 (Level 5: the growth inhibition rate is greater than 85%).
For `COc1cnc(OC)n2nc(NS(=O)(=O)c3c(OCC(F)F)cccc3C(F)(F)F)nc12` [penoxsulam, reference compound], the “Monochoria Vaginalis, activity level 0-5” value in data set [6] is 1 (Level 1: the growth inhibition rate is equal to or greater than 5% and less than 20%).
